ChEMBL document CHEMBL2413063, “Neuroactive diol and acyloin metabolites from cone snail-associated bacteria” (Bioorg Med Chem Lett, 2013)
Calls of active or inactive are those of the source. The rule behind the calls is not given here.

Key:
[1] = test system: DRG neuron; test: Neuronal activity in mouse DRG neurons assessed as amplification of KCl pulse-induced intracellular calcium transient at 90 uM by fluorescence microscopic analysis; assay type: functional, cell-based
[2] = test system: DRG neuron; test: Neuronal activity in mouse DRG neurons assessed as amplification of KCl pulse-induced intracellular calcium transient at 73 uM by fluorescence microscopic analysis; assay type: functional, cell-based
[3] = target: Sodium-dependent serotonin transporter (Homo sapiens) (UniProt P31645); test: Binding affinity to serotonin transporter (unknown origin) at 10 uM by ligand displacement assay
[4] = target: Sodium-dependent noradrenaline transporter (Homo sapiens, UniProt P23975); test: Binding affinity to human norepinephrine transporter by ligand displacement assay
[5] = target: Sodium-dependent dopamine transporter (Homo sapiens) (UniProt Q01959); test: Binding affinity to dopamine transporter (unknown origin) at 10 uM by ligand displacement assay
Chain of Sodium-dependent dopamine transporter (Homo sapiens) (Q01959 whole entry): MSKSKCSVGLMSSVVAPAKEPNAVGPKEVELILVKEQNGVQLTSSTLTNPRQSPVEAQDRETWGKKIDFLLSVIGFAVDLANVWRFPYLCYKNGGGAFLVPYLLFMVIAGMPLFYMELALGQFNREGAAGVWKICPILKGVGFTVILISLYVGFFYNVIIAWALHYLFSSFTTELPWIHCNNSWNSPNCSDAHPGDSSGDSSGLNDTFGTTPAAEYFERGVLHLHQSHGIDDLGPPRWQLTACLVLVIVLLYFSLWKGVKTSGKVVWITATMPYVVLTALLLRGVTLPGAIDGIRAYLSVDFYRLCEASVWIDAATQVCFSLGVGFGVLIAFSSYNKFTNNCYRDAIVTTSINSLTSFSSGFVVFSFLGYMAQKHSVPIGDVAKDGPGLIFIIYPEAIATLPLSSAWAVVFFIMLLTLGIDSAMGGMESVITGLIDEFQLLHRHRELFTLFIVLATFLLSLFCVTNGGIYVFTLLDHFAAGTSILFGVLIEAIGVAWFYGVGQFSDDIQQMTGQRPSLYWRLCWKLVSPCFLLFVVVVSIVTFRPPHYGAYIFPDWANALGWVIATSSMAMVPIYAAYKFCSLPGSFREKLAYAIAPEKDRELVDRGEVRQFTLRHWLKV

Chain of Sodium-dependent serotonin transporter (Homo sapiens) (P31645 whole entry, looked up): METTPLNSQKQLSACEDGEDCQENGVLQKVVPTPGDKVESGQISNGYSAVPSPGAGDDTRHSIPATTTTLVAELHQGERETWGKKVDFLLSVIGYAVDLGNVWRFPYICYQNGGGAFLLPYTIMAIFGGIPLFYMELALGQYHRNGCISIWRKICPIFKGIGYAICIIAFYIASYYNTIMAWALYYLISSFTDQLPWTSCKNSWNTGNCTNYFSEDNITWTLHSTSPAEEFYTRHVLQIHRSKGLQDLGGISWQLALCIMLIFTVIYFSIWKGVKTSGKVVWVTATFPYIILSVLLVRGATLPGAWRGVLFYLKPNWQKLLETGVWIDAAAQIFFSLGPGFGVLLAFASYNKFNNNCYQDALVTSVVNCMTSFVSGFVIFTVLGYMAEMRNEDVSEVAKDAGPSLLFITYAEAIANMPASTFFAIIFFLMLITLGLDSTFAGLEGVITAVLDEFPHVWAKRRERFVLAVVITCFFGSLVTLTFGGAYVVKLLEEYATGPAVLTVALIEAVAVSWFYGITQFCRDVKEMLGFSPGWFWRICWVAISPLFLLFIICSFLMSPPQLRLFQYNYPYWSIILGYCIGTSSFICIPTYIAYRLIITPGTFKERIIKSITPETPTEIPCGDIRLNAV
Chain of Sodium-dependent noradrenaline transporter (P23975 whole entry): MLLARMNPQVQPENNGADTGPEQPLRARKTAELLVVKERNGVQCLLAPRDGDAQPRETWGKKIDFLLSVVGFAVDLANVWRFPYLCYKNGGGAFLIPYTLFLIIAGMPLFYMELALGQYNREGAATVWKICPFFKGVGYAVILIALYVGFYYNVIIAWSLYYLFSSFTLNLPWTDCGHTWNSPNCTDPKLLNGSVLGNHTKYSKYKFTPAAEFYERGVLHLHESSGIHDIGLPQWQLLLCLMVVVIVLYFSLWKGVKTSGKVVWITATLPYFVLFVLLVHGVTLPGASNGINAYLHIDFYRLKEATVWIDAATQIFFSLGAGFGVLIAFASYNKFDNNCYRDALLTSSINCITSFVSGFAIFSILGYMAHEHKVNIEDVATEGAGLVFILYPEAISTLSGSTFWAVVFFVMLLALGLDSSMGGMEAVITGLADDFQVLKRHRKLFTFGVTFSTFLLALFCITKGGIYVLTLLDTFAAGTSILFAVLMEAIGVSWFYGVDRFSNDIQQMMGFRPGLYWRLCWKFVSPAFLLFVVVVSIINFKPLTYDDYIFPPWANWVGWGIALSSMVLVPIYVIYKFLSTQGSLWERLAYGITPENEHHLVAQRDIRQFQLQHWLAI

`CC(C)CC(=O)C(O)Cc1ccc(O)cc1` (stereo unspecified) was tested, and the Activity [1] was “inactive”.
With `O=C(Cc1ccc(O)cc1)C(O)Cc1ccc(O)cc1` (stereo unspecified) the Activity [2] was “Active”.
With `CC(C)CC(O)C(=O)Cc1ccc(O)cc1` (stereo unspecified) the Activity [1] was “inactive”.
With `O=C(Cc1c[nH]c2ccccc12)C(O)Cc1ccc(O)cc1` (stereo unspecified) the inhibition [3] was “inactive”, the Ki [4] was 867 nM and the inhibition [5] was “inactive”.
